Assay results: article PMC11533140 (Frontiers in Pharmacology, 2024)
Where two headings read alike, the source gives them in different places.

Tests used:
PI3Kα = PI3Kα (Homo sapiens, UniProt P42336); assay: in vitro PI3Kα kinase inhibition assay; assay type: biochemical
Method: (§1) The in vitro inhibition assays of all final compounds against PI3K were performed by Shanghai ChemPartner Co., Ltd. (China). The antiproliferative activities of the compounds against A2780, U87MG, MCF7, and DU145 cell lines were tested by the standard MTT method. CHO cells stably expressing the transcript of hERG were investigated by the automated whole-cell patch clamp technique, using the QPatch system (Sophion). The compound was tested with Salmonella typhimurium strains TA98 and TA100 with the plate incorporation method at seven doses. Apoptosis was evaluated using the One-Step TUNEL Apoptosis Assay Kit (FITC) (cat. no. MA0223; Meilunbio, Dalian, China), according to the manufacturer’s protocol. Male and female SD rats (SLRC Laboratory Animal Inc., Shanghai, China) were used, and the detailed pharmacokinetic procedures are described in Supplementary Material.

mTOR = mTOR (Homo sapiens, UniProt P42345); assay: in vitro mTOR inhibition assay (selectivity); assay type: biochemical; conditions: Table 4
Method: as §1

PI3Kβ = PI3Kβ (Homo sapiens, UniProt P42338); assay: in vitro PI3Kβ inhibition assay (isoform selectivity); assay type: biochemical; conditions: Table 4
Chain of PI3Kβ (P42338 whole entry, canonical isoform): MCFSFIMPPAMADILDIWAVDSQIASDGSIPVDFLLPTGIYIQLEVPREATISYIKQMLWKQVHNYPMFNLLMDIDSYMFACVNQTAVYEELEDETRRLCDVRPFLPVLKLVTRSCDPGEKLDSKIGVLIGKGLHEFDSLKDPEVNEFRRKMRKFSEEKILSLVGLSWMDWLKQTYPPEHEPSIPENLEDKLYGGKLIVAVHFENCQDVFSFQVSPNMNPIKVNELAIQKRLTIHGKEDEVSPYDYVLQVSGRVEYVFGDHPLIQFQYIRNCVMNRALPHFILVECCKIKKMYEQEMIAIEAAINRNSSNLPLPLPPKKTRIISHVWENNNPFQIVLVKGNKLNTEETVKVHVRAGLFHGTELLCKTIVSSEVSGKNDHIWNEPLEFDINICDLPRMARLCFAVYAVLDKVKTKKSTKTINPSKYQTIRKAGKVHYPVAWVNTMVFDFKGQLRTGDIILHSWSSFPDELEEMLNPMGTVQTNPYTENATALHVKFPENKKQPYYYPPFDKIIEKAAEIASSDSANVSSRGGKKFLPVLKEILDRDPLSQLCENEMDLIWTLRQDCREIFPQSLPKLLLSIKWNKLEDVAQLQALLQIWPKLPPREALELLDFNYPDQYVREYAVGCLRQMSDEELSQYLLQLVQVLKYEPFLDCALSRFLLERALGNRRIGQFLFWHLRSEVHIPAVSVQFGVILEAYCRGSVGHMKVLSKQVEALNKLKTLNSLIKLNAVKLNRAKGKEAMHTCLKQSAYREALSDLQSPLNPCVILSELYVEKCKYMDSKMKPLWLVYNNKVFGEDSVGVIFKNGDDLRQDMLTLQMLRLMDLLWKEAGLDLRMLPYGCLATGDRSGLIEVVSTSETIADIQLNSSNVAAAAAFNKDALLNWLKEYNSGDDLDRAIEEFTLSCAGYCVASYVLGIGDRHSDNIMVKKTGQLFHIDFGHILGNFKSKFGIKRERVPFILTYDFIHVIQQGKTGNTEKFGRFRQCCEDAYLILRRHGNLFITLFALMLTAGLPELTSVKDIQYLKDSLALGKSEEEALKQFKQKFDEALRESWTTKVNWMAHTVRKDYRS
Chain of PI3Kβ (P27986 whole entry partner, canonical isoform): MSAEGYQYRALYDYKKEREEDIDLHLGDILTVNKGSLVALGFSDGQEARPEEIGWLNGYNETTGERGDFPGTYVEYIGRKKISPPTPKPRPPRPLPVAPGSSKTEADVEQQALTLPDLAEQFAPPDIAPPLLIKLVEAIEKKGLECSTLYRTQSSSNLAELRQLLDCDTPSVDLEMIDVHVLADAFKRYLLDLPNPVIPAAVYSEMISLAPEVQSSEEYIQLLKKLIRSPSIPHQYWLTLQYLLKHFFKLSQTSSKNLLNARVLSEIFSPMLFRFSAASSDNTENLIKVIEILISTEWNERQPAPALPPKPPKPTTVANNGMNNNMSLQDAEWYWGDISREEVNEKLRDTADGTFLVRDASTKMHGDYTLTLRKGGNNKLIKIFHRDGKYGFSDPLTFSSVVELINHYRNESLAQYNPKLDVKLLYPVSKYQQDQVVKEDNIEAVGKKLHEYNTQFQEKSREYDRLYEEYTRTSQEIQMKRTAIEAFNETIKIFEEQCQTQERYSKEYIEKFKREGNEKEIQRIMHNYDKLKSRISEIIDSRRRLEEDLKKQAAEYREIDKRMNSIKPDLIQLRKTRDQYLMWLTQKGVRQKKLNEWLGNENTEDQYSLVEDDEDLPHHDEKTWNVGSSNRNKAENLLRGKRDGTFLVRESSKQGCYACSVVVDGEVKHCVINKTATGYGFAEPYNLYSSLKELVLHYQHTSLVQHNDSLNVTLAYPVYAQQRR
Method: as §1

MCF7 cells = assay: MTT antiproliferative assay, MCF7; assay type: cell-based; conditions: Homo sapiens
Method: as §1

A2780 cells [1] = assay: MTT antiproliferative assay, A2780; assay type: cell-based; conditions: Homo sapiens
Method: as §1

PI3Kδ = PI3Kδ (Homo sapiens, UniProt O00329); assay: in vitro PI3Kδ inhibition assay (isoform selectivity); assay type: biochemical; conditions: Table 4
Chain of PI3Kδ (O00329 whole entry, canonical isoform): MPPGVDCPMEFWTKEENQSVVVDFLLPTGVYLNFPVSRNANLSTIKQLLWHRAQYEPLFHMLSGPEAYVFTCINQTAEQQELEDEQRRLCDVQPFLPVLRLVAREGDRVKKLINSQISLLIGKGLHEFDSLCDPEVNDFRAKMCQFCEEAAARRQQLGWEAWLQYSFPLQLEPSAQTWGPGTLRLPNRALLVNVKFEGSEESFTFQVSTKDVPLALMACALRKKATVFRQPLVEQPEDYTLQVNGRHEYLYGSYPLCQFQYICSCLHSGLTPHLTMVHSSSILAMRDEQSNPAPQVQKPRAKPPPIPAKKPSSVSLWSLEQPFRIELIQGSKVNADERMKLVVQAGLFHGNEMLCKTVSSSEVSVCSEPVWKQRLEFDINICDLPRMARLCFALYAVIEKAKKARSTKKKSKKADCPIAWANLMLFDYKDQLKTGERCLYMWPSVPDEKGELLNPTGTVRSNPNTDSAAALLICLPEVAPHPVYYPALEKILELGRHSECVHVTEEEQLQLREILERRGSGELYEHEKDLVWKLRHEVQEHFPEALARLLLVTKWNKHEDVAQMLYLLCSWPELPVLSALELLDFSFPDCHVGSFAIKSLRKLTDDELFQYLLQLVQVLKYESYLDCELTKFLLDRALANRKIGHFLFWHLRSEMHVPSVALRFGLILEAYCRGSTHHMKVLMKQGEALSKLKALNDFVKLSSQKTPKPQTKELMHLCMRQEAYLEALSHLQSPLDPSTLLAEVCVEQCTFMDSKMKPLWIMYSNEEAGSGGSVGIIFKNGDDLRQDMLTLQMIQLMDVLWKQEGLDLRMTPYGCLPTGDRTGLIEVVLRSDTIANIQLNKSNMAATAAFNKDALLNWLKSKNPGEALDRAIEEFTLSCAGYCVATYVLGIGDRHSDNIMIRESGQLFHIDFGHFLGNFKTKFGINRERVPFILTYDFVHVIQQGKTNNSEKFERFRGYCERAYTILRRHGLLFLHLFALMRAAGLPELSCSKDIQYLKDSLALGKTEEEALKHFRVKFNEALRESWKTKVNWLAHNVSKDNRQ
Chain of PI3Kδ (P27986 whole entry partner, canonical isoform): as the sequence (P27986 whole entry partner, canonical isoform) above
Method: as §1

DU145 cells = assay: MTT antiproliferative assay, DU145; assay type: cell-based; conditions: Homo sapiens, DU-145
Method: as §1

U87MG cells = assay: MTT antiproliferative assay, U87MG; assay type: cell-based; conditions: Homo sapiens, U-87 MG
Method: as §1

PI3Kγ = PI3Kγ (Homo sapiens, UniProt P48736); assay: in vitro PI3Kγ inhibition assay (isoform selectivity); assay type: biochemical; conditions: Table 4
Chain of PI3Kγ (P48736 whole entry, canonical isoform): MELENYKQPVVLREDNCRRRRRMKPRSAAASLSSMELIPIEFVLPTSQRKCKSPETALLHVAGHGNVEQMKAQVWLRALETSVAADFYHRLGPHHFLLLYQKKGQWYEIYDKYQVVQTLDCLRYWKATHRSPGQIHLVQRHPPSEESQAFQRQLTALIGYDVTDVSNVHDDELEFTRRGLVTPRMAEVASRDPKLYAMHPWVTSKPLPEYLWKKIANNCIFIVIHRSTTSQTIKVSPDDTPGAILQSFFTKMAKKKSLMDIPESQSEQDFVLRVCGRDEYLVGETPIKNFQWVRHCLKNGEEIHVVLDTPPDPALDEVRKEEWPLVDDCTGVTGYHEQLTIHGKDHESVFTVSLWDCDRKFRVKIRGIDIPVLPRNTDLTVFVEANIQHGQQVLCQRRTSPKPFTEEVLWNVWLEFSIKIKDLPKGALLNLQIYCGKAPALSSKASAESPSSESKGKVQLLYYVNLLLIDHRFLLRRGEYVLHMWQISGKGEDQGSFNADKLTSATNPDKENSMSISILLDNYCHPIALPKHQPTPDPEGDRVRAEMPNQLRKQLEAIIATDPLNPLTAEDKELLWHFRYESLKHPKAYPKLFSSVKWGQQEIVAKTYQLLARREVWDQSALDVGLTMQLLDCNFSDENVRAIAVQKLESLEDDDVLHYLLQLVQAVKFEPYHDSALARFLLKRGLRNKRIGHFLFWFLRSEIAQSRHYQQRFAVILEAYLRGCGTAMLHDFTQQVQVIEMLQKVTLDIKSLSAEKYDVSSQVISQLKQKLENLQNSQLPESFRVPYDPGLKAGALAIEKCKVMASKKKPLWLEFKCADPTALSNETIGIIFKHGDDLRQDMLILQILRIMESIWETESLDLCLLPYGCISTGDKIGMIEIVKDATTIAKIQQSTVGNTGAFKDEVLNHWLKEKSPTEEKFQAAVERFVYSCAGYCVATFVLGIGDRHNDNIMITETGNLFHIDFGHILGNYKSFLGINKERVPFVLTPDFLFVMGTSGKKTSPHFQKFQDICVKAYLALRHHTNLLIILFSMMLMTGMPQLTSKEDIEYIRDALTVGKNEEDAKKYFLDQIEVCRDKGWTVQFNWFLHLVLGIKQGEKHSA
Method: as §1

HL-7702 cells = assay: inhibitory activity on normal cells, HL-7702; assay type: cell-based; conditions: Homo sapiens, L02
Description: (§2) Several clinical PI3K candidates were severely intolerable to patients due to fatal hepatotoxicity and, thus, failed in clinical trials. Thus, evaluating the selectivity of compounds toward normal cells might reduce the risk of clinical failure of new compounds.

MRC-5 cells = assay: inhibitory activity on normal cells, MRC-5; assay type: cell-based; conditions: Homo sapiens, MRC5
Description: as §2

hERG = target: T1, hERG (Homo sapiens, UniProt Q12809); assay: hERG automated whole-cell patch clamp (QPatch), CHO cells; assay type: cell-based; conditions: human, CHO cells stably expressing hERG; CHO cells expressing hERG, patch clamp; read-out: IC50 on hERG potassium currents
T1 construct: expressed in transfected cells
Method: as §1
(§3) To evaluate cardiotoxicity, it is necessary to test inhibitory activity on hERG potassium currents.

hERG potassium currents = target: T2, hERG potassium currents (Homo sapiens, UniProt Q12809); assay: as above; assay type: cell-based; conditions: in words
T2 construct: expressed in transfected cells
Method: as §1, §3

[2] = system: Salmonella typhimurium TA100; assay: Ames test, plate incorporation, TA100; assay type: cell-based
Method: as §1
(§4) S. typhimurium TA98 and TA100 were selected to conduct the Ames experiment to investigate the genotoxicity risk of compound 17p.

[3] = liver microsome stability, human; assay type: in vitro ADME; conditions: liver microsomes
Method: (§5) The metabolic stability of 17p was evaluated in liver microsome assays, which measure clearance and half-life in rats and humans.

A2780 cells [4] = assay: TUNEL apoptosis assay in A2780; assay type: cell-based; conditions: 24 h treatment
Method: as §1
The ED50 value of 17p cytotoxicity was determined using a multiple logistic regression model.

[5] = liver microsome stability, rat; assay type: in vitro ADME; conditions: liver microsomes
Method: as §5

[6] = pharmacokinetics in SD rats; assay type: in vivo; set-up: area under the curve: unit not given here; conditions: for AUC(0-t) / Cmax / half-life / Tmax / bioavailability: rat, plasma; for bioavailability: read-out: F (oral bioavailability)
Method: as §1
According to the good in vitro properties of compound 17p, we performed pharmacokinetic analyses in male and female SD rats at doses of 10 (po) and 2.5 mg/kg (iv), respectively (Table 9). The pharmacokinetic properties in male and female SD rats were […]. […] Thus, compound 17p had favorable pharmacokinetic properties.

[7] = system: Salmonella typhimurium TA98; assay: Ames test, plate incorporation, TA98; assay type: cell-based
Method: as §1, §4

[8] = mean of three independent experiments, read-out: IC50 against PI3Kα
[9] = Figure 5 activity bins, read-out: IC50 range in SAR figure (PI3Kα)
[10] = Table 4, read-out: IC50 PI3Kα (isoform selectivity study)
[11] = read-out: T1/2 liver microsomes

Chain of PI3Kα (P42336 whole entry): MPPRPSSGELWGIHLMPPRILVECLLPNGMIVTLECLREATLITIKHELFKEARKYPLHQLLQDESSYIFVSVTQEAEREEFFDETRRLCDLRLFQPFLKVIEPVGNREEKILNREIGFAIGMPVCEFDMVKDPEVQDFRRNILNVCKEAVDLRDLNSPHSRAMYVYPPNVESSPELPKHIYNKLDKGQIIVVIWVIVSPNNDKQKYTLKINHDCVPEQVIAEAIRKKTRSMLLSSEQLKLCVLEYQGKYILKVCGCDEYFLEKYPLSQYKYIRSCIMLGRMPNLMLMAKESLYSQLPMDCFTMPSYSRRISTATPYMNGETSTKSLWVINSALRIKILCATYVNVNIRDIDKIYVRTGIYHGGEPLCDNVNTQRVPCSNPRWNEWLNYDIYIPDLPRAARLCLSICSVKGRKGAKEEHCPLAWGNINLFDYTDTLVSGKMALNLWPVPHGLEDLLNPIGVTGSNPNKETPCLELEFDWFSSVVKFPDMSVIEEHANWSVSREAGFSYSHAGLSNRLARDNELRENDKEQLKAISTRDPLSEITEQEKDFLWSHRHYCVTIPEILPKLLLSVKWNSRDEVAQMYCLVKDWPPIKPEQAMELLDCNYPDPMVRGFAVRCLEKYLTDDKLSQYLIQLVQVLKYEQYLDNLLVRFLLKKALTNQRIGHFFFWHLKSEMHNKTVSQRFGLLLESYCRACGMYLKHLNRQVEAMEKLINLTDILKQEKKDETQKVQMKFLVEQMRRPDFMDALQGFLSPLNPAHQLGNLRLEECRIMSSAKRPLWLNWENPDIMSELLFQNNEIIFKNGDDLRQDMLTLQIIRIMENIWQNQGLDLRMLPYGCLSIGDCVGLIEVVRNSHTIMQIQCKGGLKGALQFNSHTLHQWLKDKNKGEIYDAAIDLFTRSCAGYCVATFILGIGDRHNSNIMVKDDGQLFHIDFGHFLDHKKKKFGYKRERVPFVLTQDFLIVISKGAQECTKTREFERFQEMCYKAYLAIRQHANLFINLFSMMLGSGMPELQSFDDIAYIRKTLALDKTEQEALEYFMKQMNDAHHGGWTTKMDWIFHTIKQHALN
Chain of PI3Kα (P27986 whole entry partner): as the sequence (P27986 whole entry partner, canonical isoform) above

For `N#Cc1c(-c2ccncc2)nc(N2CCOCC2)nc1N1CCOCC1` [Compound 17j], the IC50 (PI3Kα; Figure 5 activity bins, read-out: weak activity IC50 in SAR figure (PI3Kα)) was over 1 µM and the IC50 (PI3Kα; [8]) was 3.04 µM.
For `CNc1ncc(-c2nc(N3CCOCC3)nc(N3CCOCC3)c2C#N)cn1` [Compound 17o], the IC50 (mTOR) was 0.204 ± 0.0301 µM, the IC50 (PI3Kβ) was 0.176 ± 0.0263 µM and the IC50 (MCF7 cells) was 1.16 ± 0.12 µM. The IC50 (A2780 cells [1]) was 1.13 ± 0.1 µM, the IC50 (PI3Kδ) was 0.204 ± 0.0222 µM and the IC50 (PI3Kα; [9]) was 0.03 to 0.3 µM. For the same compound, the IC50 (PI3Kα; [10]) was 0.0347 ± 0.0046 µM, the IC50 (PI3Kα; [8]) was 0.0347 ± 0.0021 µM and the IC50 (DU145 cells) was 5.05 ± 0.47 µM. The IC50 (U87MG cells) was 4.19 ± 0.53 µM and the IC50 (PI3Kγ) was 0.176 ± 0.0159 µM.
With `N#Cc1c(-c2cccc(O)c2)nc(N2CCOCC2)nc1N1CCOCC1` [Compound 17e] the IC50 (HL-7702 cells) was 6.17 ± 0.75 µM, the IC50 (mTOR) was over 10 µM and the IC50 (PI3Kβ) was 0.152 ± 0.0187 µM. For the same compound, the IC50 (MCF7 cells) was 0.37 ± 0.03 µM, the IC50 (A2780 cells [1]) was 0.39 ± 0.03 µM and the IC50 (PI3Kδ) was 0.0556 ± 0.0038 µM. The IC50 (PI3Kα; [9]) was 0.03 to 0.3 µM, the IC50 (PI3Kα; [10]) was 0.0861 ± 0.0078 µM and the IC50 (PI3Kα; [8]) was 0.0885 ± 0.0061 µM. It also gave an IC50 (DU145 cells) of 1.52 ± 0.11 µM, an IC50 (U87MG cells) of 1.75 ± 0.22 µM and an IC50 (MRC-5 cells) of 2.19 ± 0.11 µM. It also gave an IC50 (PI3Kγ) of 0.318 ± 0.019 µM.
`COc1cc(N)c(Cl)cc1C(=O)NC1CCN(CCCOc2ccc(F)cc2)CC1OC` (stereo not drawn) [Cisapride, reference compound] showed an IC50 (hERG) of 0.41 ± 0.06 µM.
With `Cc1nn(C)cc1-c1nc(N2CCOCC2)nc(N2CCOCC2)c1C#N` [Compound 17c] the IC50 (PI3Kα; [8]) was 1.36 µM.
Work on `N#Cc1c(-c2cn[nH]c2)nc(N2CCOCC2)nc1N1CCOCC1` [Compound 17a] yielded an IC50 (PI3Kα; [9]) of 0.03 to 0.3 µM and an IC50 (PI3Kα; [8]) of 0.162 ± 0.0131 µM.
For `N#Cc1c(-c2cncnc2)nc(N2CCOCC2)nc1N1CCOCC1` [Compound 17n], the IC50 (PI3Kα; [9]) was 0.4 to 0.8 µM and the IC50 (PI3Kα; [8]) was 0.604 ± 0.103 µM.
Compound `N#Cc1c(-c2cccc3[nH]ncc23)nc(N2CCOCC2)nc1N1CCOCC1` [Compound 17b] has an IC50 (PI3Kα; [9]) of 0.03 to 0.3 µM and an IC50 (PI3Kα; [8]) of 0.254 ± 0.0269 µM.
In the case of `N#Cc1c(-c2cnc(N)nc2C(F)(F)F)nc(N2CCOCC2)nc1N1CCOCC1` [Compound 17p], the IC50 (hERG) is reported as 0.39 ± 0.03 µM, the “inhibition of hERG potassium currents” value (hERG potassium currents) is reported as “no obvious inhibition” and the “Number of bacterial colony revertant mutations (mean ± SD) TA100” value (shortened to “Number … (mean ± SD) TA100”) ([2]; 3 μg/dish) is reported as 88 ± 7. For the same compound, the “Number … (mean ± SD) TA100” value ([2]; 10 μg/dish) was 92 ± 3, the “Number … (mean ± SD) TA100” value ([2]; 30 μg/dish) was 86 ± 4 and the “Number … (mean ± SD) TA100” value ([2]; 100 μg/dish) was 91 ± 6. For the same compound, the “Number … (mean ± SD) TA100” value ([2]; 300 μg/dish) was 90 ± 3, the “Number … (mean ± SD) TA100” value ([2]; 1,000 μg/dish) was 91 ± 1 and the “Number … (mean ± SD) TA100” value ([2]; 5,000 μg/dish) was 87 ± 1. For the same compound, the “mutagenic effect on TA100” value ([2]; in words) was “no mutagenic effect”, the IC50 (HL-7702 cells) was 4.62 ± 0.52 µM and the IC50 (mTOR) was 1.42 ± 0.184 µM. The microsomal CLint ([3]; read-out: CL liver microsomes) was 10.8 µL/min/mg, the half-life [3, 11] was 2.13 h and the “cytotoxicity ED50 (TUNEL, logistic regression)” value (A2780 cells [4]) was 5.345 µM. For the same compound, the microsomal CLint ([5]; read-out: CL liver microsomes) was 36 µL/min/mg, the half-life [5, 11] was 0.642 h and the IC50 (PI3Kβ) was 0.125 ± 0.0101 µM. For the same compound, the Cl_F_pred ([6]; female SD rats, 2.5 mg/kg iv) was 1.5 mL/min/kg, the “Cl_F_pred (plasma clearance)” value ([6]; female SD rats, 10 mg/kg po) was 3.3 mL/min/kg and the “area under the curve” value ([6]; female SD rats, 10 mg/kg po) was 50,618.9. For the same compound, the Cl_F_pred ([6]; male SD rats, 2.5 mg/kg iv) was 16.3 mL/min/kg, the Cl_F_pred ([6]; male SD rats, 10 mg/kg po) was 109 mL/min/kg and the AUC(0-t) ([6]; female SD rats, 2.5 mg/kg iv) was 27400 ng·h/mL. It also gave a Cmax ([6]; female SD rats, 2.5 mg/kg iv) of 4280 ng/mL, a half-life ([6]; female SD rats, 2.5 mg/kg iv) of 2.79 h and an AUC(0-t) ([6]; female SD rats, 10 mg/kg po) of 50600 ng·h/mL. It also gave a Cmax ([6]; female SD rats, 10 mg/kg po) of 4860 ng/mL, a Tmax ([6]; female SD rats, 10 mg/kg po) of 3.33 h and a half-life ([6]; female SD rats, 10 mg/kg po) of 2.03 h. The bioavailability ([6]; female SD rats, 10 mg/kg po) was 46.2%, the AUC(0-t) ([6]; male SD rats, 2.5 mg/kg iv) was 2690 ng·h/mL and the Cmax ([6]; male SD rats, 2.5 mg/kg iv) was 3120 ng/mL. For the same compound, the half-life ([6]; male SD rats, 2.5 mg/kg iv) was 0.68 h, the AUC(0-t) ([6]; male SD rats, 10 mg/kg po) was 1860 ng·h/mL and the Cmax ([6]; male SD rats, 10 mg/kg po) was 538 ng/mL. The Tmax ([6]; male SD rats, 10 mg/kg po) was 0.67 h, the half-life ([6]; male SD rats, 10 mg/kg po) was 3.19 h and the bioavailability ([6]; male SD rats, 10 mg/kg po) was 17.3%. For the same compound, the IC50 (MCF7 cells) was 1.59 ± 0.08 µM, the IC50 (A2780 cells [1]) was 0.85 ± 0.11 µM and the IC50 (PI3Kδ) was 0.0154 ± 0.0019 µM. It also gave an IC50 (PI3Kα; [9]) of 0.03 to 0.3 µM, an IC50 (PI3Kα; [10]) of 0.0303 ± 0.0035 µM and an IC50 (PI3Kα; [8]) of 0.0324 ± 0.0041 µM. For the same compound, the IC50 (DU145 cells) was 8.77 ± 1.16 µM, the IC50 (U87MG cells) was 4.72 ± 0.37 µM and the IC50 (MRC-5 cells) was 8.47 ± 0.77 µM. For the same compound, the “Number of bacterial colony revertant mutations (mean ± SD) TA98” value (“Number … (mean ± SD) TA98” below) ([7]; 3 μg/dish) was 38 ± 7, the “Number … (mean ± SD) TA98” value ([7]; 10 μg/dish) was 41 ± 4 and the “Number … (mean ± SD) TA98” value ([7]; 30 μg/dish) was 37 ± 11. The “Number … (mean ± SD) TA98” value ([7]; 100 μg/dish) was 43 ± 4, the “Number … (mean ± SD) TA98” value ([7]; 300 μg/dish) was 29 ± 4 and the “Number … (mean ± SD) TA98” value ([7]; 1,000 μg/dish) was 44 ± 5. The “Number … (mean ± SD) TA98” value ([7]; 5,000 μg/dish) was 40 ± 4, the “mutagenic effect on TA98” value ([7]; in words) was “no mutagenic effect” and the IC50 (PI3Kγ) was 0.286 ± 0.0396 µM.
`CCOC(=O)C1CCN(c2nc(-c3cnc(N)cc3C(F)(F)F)cc(N3CCOCC3)n2)CC1` [Compound 12b] showed an IC50 (PI3Kα; [8]) of 0.685 ± 0.0626 µM.
`N#Cc1c(-c2cccnc2)nc(N2CCOCC2)nc1N1CCOCC1` [Compound 17i] showed an IC50 (PI3Kα; [9]) of 0.4 to 0.8 µM and an IC50 (PI3Kα; [8]) of 0.792 ± 0.0877 µM.
With `COc1ccc(-c2cc(N3CCOCC3)nc(N3CCOCC3)n2)cn1` [Compound 12d] the “IC50 against PI3Kα” value (PI3Kα; mean of three independent experiments) was “poor activity” and the IC50 (PI3Kα; [8]) was 1.01 µM.
